Experimental data from patent US20080274097A1, “BOOSTER FOR THERAPY OF DISEASES WITH ULTRASOUND AND PHARMACEUTICAL LIQUID COMPOSITION CONTAINING THE SAME” (priority 1991, published 2008).

System: artificial thrombosis
Assay: Fibrinolysis of artificial thrombosis (Chandler's method) with ultrasonic catheter
Set-up: species or system human
Settings: for time for achieving 20% fibrinolysis: FIG. 4, thrombosis from blood of one person, urokinase 1200 IU/ml
Protocol: An artificial thrombosis was formed by Chandler's method. Blood (1 ml) that was collected from healthy humans (two persons) was entered into a flexible tube (inside diameter 3 mm, length 265 mm) and thereto was added calcium chloride, and then the tube was made a loop like shape, which was rotated at 12 rpm for 20 minutes to give an artificial thrombosis model.
A ceramic ultrasonic element (width 2 mm, length 5 mm, thickness 1 mm) was inserted into the tip of a catheter (diameter 2 mm), and an oscillating element was connected to an oscillator provided outside with a fine connector passed through the catheter. A fine tube for pouring a test solution was provided at an opening opposite to the opening of the catheter end.
The artificial thrombosis prepared above was added to a test tube together with blood, and the ultrasonic catheter was inserted into the test tube so that the end of the catheter was set close to the portion of the artificial thrombosis (at a distance of about 5 mm), and to the test tube a mixture of urokinase and a booster prepared in Example 1 was added at a rate of 1 ml per minute, wherein urokinase (concentration 1200 IU/ml) and the booster were mixed immediately before pouring at a mixing ration of 1:1 by weight. The mixture was refluxed while keeping the volume of the test solution at a constant level by removing excess volume of the solution by suction. The ultrasound (170 KHz) was exposed to the mixture by a pulse method (exposed for 2 seconds and stopped for 4 seconds) for 2 minutes (total exposing time 40 seconds). After the exposure, the ultrasonic catheter was removed from the test tube, and the mixture was incubated at 37 degrees C. for 5 to 120 minutes, washed with a physiological saline solution several times and dried overnight. Thereafter, the dried mixture was weighed. As a control, the above was repeated by using only a physiological saline solution.
The rate of fibrinolysis was calculated by the following equation: […]
The results are shown in the accompanying FIGS. 4 and 5 wherein there are shown in average of twice tests.

Substance: urokinase
- time for achieving 20% fibrinolysis (with exposure of ultrasound (170 KHz, pulse, 2 minutes)): 30 min
- time for achieving 20% fibrinolysis (without exposure of ultrasound): 45 min
- treatment time at which 50% fibrinolysis was achieved (FIG. 5, thrombosis from blood of another person, with exposure of ultrasound, energy reduced by 15%): 60 min
